The test concerns the target T1, human kinase Mps-1 (Homo sapiens, UniProt P33981).
T1 construct: N-terminally GST-tagged human full length recombinant Mps-1 kinase; GST (N); purchased Invitrogen, Karslruhe, Germany PV4071
T1 sequence (P33981 1-857): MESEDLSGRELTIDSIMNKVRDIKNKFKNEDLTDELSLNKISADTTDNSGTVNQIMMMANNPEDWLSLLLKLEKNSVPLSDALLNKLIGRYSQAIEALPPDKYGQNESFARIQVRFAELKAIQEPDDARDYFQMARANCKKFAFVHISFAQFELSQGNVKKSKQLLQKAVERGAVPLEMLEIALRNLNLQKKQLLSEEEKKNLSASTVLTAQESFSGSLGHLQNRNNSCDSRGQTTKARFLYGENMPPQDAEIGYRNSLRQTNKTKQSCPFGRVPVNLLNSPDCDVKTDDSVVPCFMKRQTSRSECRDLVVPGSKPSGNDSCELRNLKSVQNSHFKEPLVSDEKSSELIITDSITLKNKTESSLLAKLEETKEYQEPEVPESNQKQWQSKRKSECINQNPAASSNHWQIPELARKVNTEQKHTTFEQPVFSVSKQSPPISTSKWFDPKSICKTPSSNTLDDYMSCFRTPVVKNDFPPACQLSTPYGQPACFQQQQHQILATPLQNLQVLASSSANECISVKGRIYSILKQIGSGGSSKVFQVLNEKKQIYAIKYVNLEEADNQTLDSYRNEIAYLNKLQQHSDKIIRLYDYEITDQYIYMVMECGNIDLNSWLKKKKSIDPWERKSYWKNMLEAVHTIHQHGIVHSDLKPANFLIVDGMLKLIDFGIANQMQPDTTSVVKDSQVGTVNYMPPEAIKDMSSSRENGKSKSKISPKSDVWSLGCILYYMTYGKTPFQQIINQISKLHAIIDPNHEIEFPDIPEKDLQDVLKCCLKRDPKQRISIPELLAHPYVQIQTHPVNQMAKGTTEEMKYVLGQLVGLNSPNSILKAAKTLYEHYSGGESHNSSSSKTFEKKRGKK
The experiment in a line: Mps-1 kinase assay (TR-FRET). It counts as biochemical. The conditions noted are these: N-terminally GST-tagged human full length recombinant Mps-1; 10 μM ATP; 1 μM peptide substrate; 60 min at 22° C. As for the experimental part:
The human kinase Mps-1 phosphorylates a biotinylated substrate peptide. Detection of the phosphorylated product is achieved by time-resolved fluorescence resonance energy transfer (TR-FRET) from Europium-labelled anti-phospho-Serine/Threonine antibody as donor to streptavidin labelled with cross-linked allophycocyanin (SA-XLent) as acceptor. Compounds are tested for their inhibition of the kinase activity.
N-terminally GST-tagged human full length recombinant Mps-1 kinase (purchased from Invitrogen, Karslruhe, Germany, cat. no PV4071) was used. As substrate for the kinase reaction a biotinylated peptide of the amino-acid sequence […] (C-terminus in amide form, purchased from Biosynthan GmbH, Berlin) was used.
The concentration of Mps-1 in the assay was adjusted to the activity of the enzyme lot and was chosen appropriate to have the assay in the linear range, typical enzyme concentrations were in the range of about 1 nM (final conc. in the 5 μl assay volume).
The resulting mixture was incubated 1 h at 22° C. to allow the binding of the phosphorylated peptide to the anti-phospho(Ser/Thr)-Europium-antibody. Subsequently the amount of phosphorylated substrate was evaluated by measurement of the resonance energy transfer from the Europium-labelled anti-phospho(Ser/Thr) antibody to the Streptavidin-XLent.
In general terms: Time-resolved FRET reads energy transfer from a long-lived donor to a nearby acceptor.

The values that follow come from US20140255392A1 (BAYER INTELLECTUAL PROPERTY GMBH, priority 2011, published 2014).

By IC50 is commonly meant the midpoint of a concentration-inhibition curve. As for `COc1ccc(Oc2cc(NCCC(F)(F)F)c3ncc(-c4ccc(C(=O)N[C@H]5C[C@@H]5F)c(C)c4)n3c2)cc1F` (relative stereo) [Example 124, N-[rel-(1S,2S)-2-fluorocyclopropyl]-4-{6-(3-fluoro-4-methoxyphenoxy)-8-[(3,3,3-trifluoropropyl)amino]imidazo[1,2-a]pyridin-3-yl}-2-methylbenzamide], the IC50 turned out to be 0.7 nM.
Next, `Cc1cc(-c2cnc3c(NCCC(F)(F)F)cc(Oc4cccc(F)c4)cn23)ccc1C(=O)NC1CC1F` (single isomer, unassigned) [Example 12 (ent.-A or A), N-{[(1R,2R) or (1S,2S)]-2-fluorocyclopropyl}-4-{6-(3-fluorophenoxy)-8-[(3,3,3-trifluoropropyl)amino]imidazo[1,2-a]pyridin-3-yl}-2-methylbenzamide]: 0.7 nM; `CNC(=O)c1ccc(-c2cnc3c(NCCC(F)(F)F)cc(Oc4ccc(OC)c(F)c4)cn23)cc1C` [Example 106, 4-{6-(3-Fluoro-4-methoxyphenoxy)-8-[(3,3,3-trifluoropropyl)amino]imidazo[1,2-a]pyridin-3-yl}-N,2-dimethylbenzamide]: 1.6 nM.
With `CNC(=O)c1ccc(-c2cnc3c(NCCC(F)(F)F)cc(-c4ccc(C(=O)NC5(CO)CC5)c(C)c4)cn23)cc1C` [Example 155, 4-{6-(4-{[1-(hydroxymethyl)cyclopropyl]carbamoyl}-3-methylphenyl)-8-[(3,3,3-trifluoropropyl)amino]imidazo[1,2-a]pyridin-3-yl}-N,2-dimethylbenzamide], the IC50 amounted to 21.1 nM.
Next, `CCNC(=O)c1ccc(-c2cnc3c(NCCC(F)(F)F)cc(Oc4ccc(OC(F)(F)F)c(F)c4)cn23)cc1C` [Example 87, N-ethyl-4-{6-[3-fluoro-4-(trifluoromethoxy)phenoxy]-8-[(3,3,3-trifluoropropyl)amino]imidazo[1,2-a]pyridin-3-yl}-2-methylbenzamide]: 70.3 nM; `CCc1cc(NCCC(F)(F)F)c2ncc(-c3ccc(C(=O)N[C@H]4C[C@@H]4C)c(C)c3)n2c1` (relative stereo) [Example 105, 4-{6-Ethyl-8-[(3,3,3-trifluoropropyl)amino]imidazo[1,2-a]pyridin-3-yl}-2-methyl-N-[rel-(1S,2S)-2-methylcyclopropyl]benzamide]: 49.8 nM.
Regarding `Cc1ccc(F)cc1Oc1cc(NCCC(F)(F)F)c2ncc(-c3ccc(C(=O)NC4CC4)c(C)c3)n2c1` [Example 19, N-cyclopropyl-4-{6-(5-fluoro-2-methylphenoxy)-8-[(3,3,3-trifluoropropyl)amino]imidazo[1,2-a]pyridin-3-yl}-2-methylbenzamide], the 50% inhibitory concentration (IC50) is 0.7 nM.
Next, `COCCNc1cc(C(=O)c2cc(F)ccc2O)cn2c(-c3ccc(C(=O)NC4CC4)c(C)c3)cnc12` [Example 174, N-cyclopropyl-4-{6-(5-fluoro-2-hydroxybenzoyl)-8-[(2-methoxyethyl)amino]imidazo[1,2-a]pyridin-3-yl}-2-methylbenzamide]: 816 nM; `Cc1cc(-c2cnc3c(NCCC(F)(F)F)cc(S(C)(=O)=O)cn23)ccc1C(=O)NC1CC1` [Example 5-1]: 84.1 nM; `Cc1cc(-c2cnc3c(NCCC(F)(F)F)cc(Oc4cccc(F)c4)cn23)ccc1C(=O)NC1CC1F` (single isomer, unassigned) [Example 12 (A or ent.-A), N-{[(1S,2S) or (1R,2R)]-2-fluorocyclopropyl}-4-{6-(3-fluorophenoxy)-8-[(3,3,3-trifluoropropyl)amino]imidazo[1,2-a]pyridin-3-yl}-2-methylbenzamide]: 0.8 nM.
As for `CCNC(=O)c1ccc(-c2cc(NCCC(F)(F)F)c3ncc(-c4ccc(C(=O)NC)c(C)c4)n3c2)cc1C` [Example 159, 4-{6-[4-(ethylcarbamoyl)-3-methylphenyl]-8-[(3,3,3-trifluoropropyl)amino]imidazo[1,2-a]pyridin-3-yl}-N,2-dimethylbenzamide], the IC50 stood at 9.1 nM.
The result for `CCNC(=O)c1ccc(-c2cnc3c(NCCC(F)(F)F)cc(-c4ccccc4O)cn23)cc1C` [Example 134, N-ethyl-4-{6-(2-hydroxyphenyl)-8-[(3,3,3-trifluoropropyl)amino]imidazo[1,2-a]pyridin-3-yl}-2-methylbenzamide] reads 13.7 nM.
As for `CNC(=O)c1ccc(-c2cnc3c(NCCC(F)(F)F)cc(C#CCO)cn23)cc1C` [Example 20, 4-{6-(3-hydroxyprop-1-yn-1-yl)-8-[(3,3,3-trifluoropropyl)amino]imidazo[1,2-a]pyridin-3-yl}-N,2-dimethylbenzamide], the IC50 came to 41.1 nM.
Next, `C#Cc1cc(NCCC(F)(F)F)c2ncc(-c3ccc(C(=O)NC)c(C)c3)n2c1` [Example 14, 4-{6-ethynyl-8-[(3,3,3-trifluoropropyl)amino]imidazo[1,2-a]pyridin-3-yl}-N,2-dimethylbenzamide]: 65.2 nM; `C=Cc1cc(NCCC(F)(F)F)c2ncc(-c3ccc(C(=O)N[C@H]4C[C@@H]4C)c(C)c3)n2c1` (relative stereo) [Example 98, 2-Methyl-N-[rel-(1S,2S)-2-methylcyclopropyl]-4-{8-[(3,3,3-trifluoropropyl)amino]-6-vinylimidazo[1,2-a]pyridin-3-yl}benzamide]: 29.4 nM.
On to `Cc1ccc(F)cc1Oc1cc(NCCC(F)(F)F)c2ncc(-c3ccc(C(=O)N[C@H]4C[C@@H]4F)c(C)c3)n2c1` (relative stereo) [Example 29, N-[rel-(1S,2S)-2-fluorocyclopropyl]-4-{6-(5-fluoro-2-methylphenoxy)-8-[(3,3,3-trifluoropropyl)amino]imidazo[1,2-a]pyridin-3-yl}-2-methylbenzamide], for which the IC50 amounted to 1.3 nM.
The result for `Cc1cc(-c2cnc3c(NCCC(F)(F)F)cc(Oc4cccc(OC(F)(F)F)c4)cn23)ccc1C(=O)NC1(C)CC1` [Example 76, 2-Methyl-N-(1-methylcyclopropyl)-4-{6-[3-(trifluoromethoxy)phenoxy]-8-[(3,3,3-trifluoropropyl)amino]imidazo[1,2-a]pyridin-3-yl}benzamide] reads 105 nM; that for `Cc1cc(-c2cnc3c(NCC(F)F)cc(Oc4cc(F)ccc4F)cn23)ccc1C(=O)NC1CC1` [Example 165, N-cyclopropyl-4-{8-[(2,2-difluoroethyl)amino]-6-(2,5-difluorophenoxy)imidazo[1,2-a]pyridin-3-yl}-2-methylbenzamide], 48.3 nM.
The result for `CCNC(=O)c1ccc(-c2cnc3c(NCCC(F)(F)F)cc(C(C)O)cn23)cc1C` (racemic) [Example 145, N-ethyl-4-{6-[(1RS)-1-hydroxyethyl]-8-[(3,3,3-trifluoropropyl)amino]imidazo[1,2-a]pyridin-3-yl}-2-methylbenzamide] reads 250 nM; that for `Cc1cc(-c2cnc3c(NCCC(F)(F)F)cc(Oc4cccc(F)c4)cn23)ccc1C(=O)NC1(C#N)CC1` [Example 13, N-(1-cyanocyclopropyl)-4-{6-(3-fluorophenoxy)-8-[(3,3,3-trifluoropropyl)amino]imidazo[1,2-a]pyridin-3-yl}-2-methylbenzamide], 11.1 nM; that for `Cc1cc(-c2cnc3c(NCCC(F)(F)F)cc(Oc4ccc(OC(F)(F)F)c(F)c4)cn23)ccc1C(=O)NC1(C#N)CC1` [Example 84, N-(1-cyanocyclopropyl)-4-{6-[3-fluoro-4-(trifluoromethoxy)phencow]-8-[(3,3,3-trifluoropropyl)amino]imidazo[1,2-a]pyridin-3-yl}-2-methylbenzamide], 243 nM.
The result for `Cc1cc(-c2cnc3c(NCCC(F)(F)F)cc(Oc4ccccc4)cn23)ccc1C(=O)NC1CC1` [Example 33, N-cyclopropyl-2-methyl-4-{6-phenoxy-8-[(3,3,3-trifluoropropyl)amino]imidazo[1,2-a]pyridin-3-yl}benzamide] reads 0.7 nM.
On to `COc1c(F)cccc1Oc1cc(NCCC(F)(F)F)c2ncc(-c3ccc(C(=O)NC4CC4)c(C)c3)n2c1` [Example 146, N-cyclopropyl-4-{6-(3-fluoro-2-methoxyphenoxy)-8-[(3,3,3-trifluoropropyl)amino]imidazo[1,2-a]pyridin-3-yl}-2-methylbenzamide], for which the IC50 was 3.2 nM.
